These results are taken from ChEMBL document CHEMBL3588822, “Synthetic 1,2,3-triazole-linked glycoconjugates bind with high affinity to human galectin-3” (Bioorg Med Chem, 2015).

The target in experiment [1] is T1, Galectin-3 (Homo sapiens, UniProt P17931). The experiment is described as follows: Inhibition of human recombinant wild type galectin 3 after 60 mins by surface plasmon resonance immunosensor assay.
Experiment [2] has as its target T1, Galectin-3. The experiment in a line: Inhibition of human recombinant wild type galectin 3 second carbohydrate recognition domain after 60 mins by surface plasmon resonance immunosensor assay.
Experiment [3] deals with T1, Galectin-3. The experiment in a line: Inhibition of human recombinant wild type galectin 3 first carbohydrate recognition domain after 60 mins by surface plasmon resonance immunosensor assay. Background: SPR reads the build-up and loss of mass on a sensor chip optically.

T1 sequence (P17931 whole entry, the tested form may be a part): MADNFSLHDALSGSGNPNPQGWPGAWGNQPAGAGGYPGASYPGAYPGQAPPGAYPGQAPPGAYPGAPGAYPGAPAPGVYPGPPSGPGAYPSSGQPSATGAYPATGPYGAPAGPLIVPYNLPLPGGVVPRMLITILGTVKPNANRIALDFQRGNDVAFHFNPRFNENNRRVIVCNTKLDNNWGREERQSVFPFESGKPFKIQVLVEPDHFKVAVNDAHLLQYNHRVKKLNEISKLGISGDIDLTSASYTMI

For the compound `CO[C@H]1O[C@H](CO)[C@H](O)[C@H](OCc2cn([C@H](C(=O)O)[C@@H](C)O)nn2)[C@H]1O`, on Galectin-3 [1], the Kd (usually the free concentration of one partner at which half of the binding sites on the other are occupied at equilibrium, for simple one-to-one binding) amounted to 88.2 µM.

Consider `OC[C@H]1O[C@@H](O[C@H]2[C@H](O)[C@@H](O)[C@H](OCCOCCOCCn3cc(CO[C@@H]4O[C@H](CO)[C@@H](O[C@@H]5O[C@H](CO)[C@H](O)[C@H](O)[C@H]5O)[C@H](O)[C@H]4O)nn3)O[C@@H]2CO)[C@H](O)[C@@H](O)[C@H]1O`, for which the Kd was determined as 19 µM at Galectin-3 [2] and 0.5 µM at Galectin-3 [3].

With `CO[C@H]1O[C@H](CO)[C@H](O)[C@H](OCc2cn([C@@H](Cc3ccc(O)cc3)C(=O)O)nn2)[C@H]1O`, on Galectin-3 [1], the Kd stood at 19.9 µM. `CO[C@H]1O[C@H](CO)[C@H](O)[C@H](OCc2cn([C@@H](Cc3cc4ccccc4[nH]3)C(=O)O)nn2)[C@H]1O`: the Kd on Galectin-3 [1] was determined as 28.1 µM. For the compound `CO[C@H]1O[C@H](CO)[C@H](O)[C@H](OCc2cn([C@@H](CC(=O)O)C(=O)O)nn2)[C@H]1O`, the Kd at Galectin-3 [1] amounted to 11.1 µM. The same measure, in the same setting: as for `CO[C@H]1O[C@H](CO)[C@H](O)[C@H](OCc2cn([C@@H](CCCCN)C(=O)O)nn2)[C@H]1O`, the figure is 4.56 µM; as for `CO[C@H]1O[C@H](CO)[C@H](O)[C@H](OCc2cn([C@@H](Cc3ccccc3)C(=O)O)nn2)[C@H]1O`, 7.96 µM.
